Drawing on patent US10618916B2, “Heterocyclic compounds as immunomodulators” (Incyte Corporation, priority 2018, dated 2020), this text covers IC50 and EC50 for ten molecules.

Test [1] concerns the target PD-1/PD-L1 protein/protein interaction (recombinant human PD-L1 and human PD-1) (Homo sapiens (Human), UniProt Q9NZQ7). Briefly: Homogeneous Time-Resolved Fluorescence (HTRF) PD-1/PD-L1 binding assay. The method in brief: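 Human PD-L1 (19-238, C-His; 10 nM final) and PD-1 (25-167, C-Fc; 3 nM final) preincubated 40 min with inhibitor in PBS pH 7.4, 0.05% Tween-20, 0.1% BSA, 1% DMSO, 25 °C. Eu-anti-human IgG (1 nM) and anti-His-APC (20 nM) added for 60 min; 665/620 nm ratio; IC50 from percent-control curves.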

Test [2] concerns U2OS/PD-L1 cells and Jurkat-PD-1-SHP cells. Briefly: Src homology region 2 domain-containing phosphatase (SHP) assay. It counts as cell-based. The method in brief:
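U2OS/PD-L1 and Jurkat-PD-1-SHP cells (5000 each per well) were co-incubated with compound for 2 h at 37 °C in RPMI1640 with 1% FBS, 0.05% DMSO final. PathHunter chemiluminescence was read after 1 h at room temperature, and IC50 was fitted from percent of DMSO-control activity.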

Test [3] deals with PD-L1 aAPC/CHO-K1 cells and Jurkat-PD-1-NFAT effector cells. Briefly: Nuclear factor of activated T-cells (NFAT) assay. It counts as cell-based. A digest of the protocol: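 CHO-K1 cells expressing PD-L1 aAPC were co-cultured with Jurkat-PD-1-NFAT effector cells in RPMI 1640 with 1% FBS and compound (0.4% DMSO; top concentration 2 μM) for 24 h at 37 °C. Bio-Glo luminescence was read, fold induction normalised to DMSO wells, and EC50 fitted from percent of control compound activity.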

The target in another test is PD-L1 (Homo sapiens (Human), UniProt Q9NZQ7). Briefly: PD-L1 whole blood internalization assay. The class given is cell-based. To be noted: 24 HR, PD-L1 expression on CD14+ cells, human interferon γ. On the procedure: Example D. PD-L1 Whole Blood Internalization Assay
Sequence of PD-L1 (Q9NZQ7 19-290): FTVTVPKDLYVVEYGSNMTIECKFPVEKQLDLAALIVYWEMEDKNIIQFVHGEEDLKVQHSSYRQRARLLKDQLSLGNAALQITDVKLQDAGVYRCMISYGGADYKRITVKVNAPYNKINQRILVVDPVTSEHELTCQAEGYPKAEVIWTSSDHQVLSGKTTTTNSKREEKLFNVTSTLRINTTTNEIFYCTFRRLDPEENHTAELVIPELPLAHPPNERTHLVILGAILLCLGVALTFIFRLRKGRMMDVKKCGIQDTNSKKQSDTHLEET
To determine PD-L1 internalization in human whole blood, normal human blood (Biological Specialty Corp, Colmar. Pa.) was incubated in the presence or absence of a concentration range of test compounds and 1 ng/ml human interferon γ (R&D Systems Inc. Minn. […] Blood was then stained with PD-L1 (MIH1, eBioscience; or BD Biosciences San Jose, Calif.), CD14 (Life Technologies, Carlsbad, Calif.) for 30 minutes in the dark at room temperature. Whole Blood/red cells were lysed/fixed (lysis buffer BD Biosciences) for 5 minutes at 37° C. in the dark and then centrifuged at 1600 RPM for 5 minutes. Cells were resuspended in Stain Buffer (BD Bioscience, San Jose, Calif.) and transferred into 96 well round bottom plates (Corning). Cells were gated on CD14+(BD Biosciences) and PD-L1 expression determined by mean fluorescence intensity (MFI) (BD LSRFortessa™ X-20). IC50 determination was performed by fitting the curve of compound percent inhibition versus the log of the compound concentration using the GraphPad Prism 7.0 software.

Read-outs that look alike come from different tables or passages of the source.

Sequence of PD-1/PD-L1 protein/protein interaction (recombinant human PD-L1 and human PD-1) (Q9NZQ7 19-238): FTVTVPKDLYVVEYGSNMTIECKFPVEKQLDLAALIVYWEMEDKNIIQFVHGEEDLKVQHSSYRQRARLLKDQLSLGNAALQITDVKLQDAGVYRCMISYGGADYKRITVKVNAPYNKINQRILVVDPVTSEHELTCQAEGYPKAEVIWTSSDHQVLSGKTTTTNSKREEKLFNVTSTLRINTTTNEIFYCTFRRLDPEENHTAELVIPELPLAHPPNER

As to `Cn1c(C(=O)Nc2cccc(-c3cccc(NC(=O)c4nc5c(n4C)CCN(C4CCC(O)CC4)C5)c3Cl)c2Cl)nc2c1CCN(CCC13CCC(C(=O)O)(CC1)C3)C2` (single isomer, unassigned) [60 (compound 2), 4-(2-(2-((2,2′-dichloro-3′-(5-(4-hydroxycyclohexyl)-1-methyl-4,5,6,7-tetrahydro-1H-imidazo[4,5-c]pyridine-2-carboxamido)-[1,1′-biphenyl]-3-yl)carbamoyl)-1-methyl-1,4,6,7-tetrahydro-5H-imidazo[4,5-c]pyridin-5-yl)ethyl)bicyclo[2.2.1]heptane-1-carboxylic Acid], the IC50 in test [1] is at most 5 nM; in test [2] it was at most 10 nM; at PD-L1, 10 to 100 nM. In test [3], this molecule gave an EC50 of at most 10 nM.
For the molecule `Cc1c(NC(=O)c2nc3c(n2C)CCN(C2CCC(O)CC2)C3)cccc1-c1cccc(NC(=O)c2nc3c(n2C)CCN(CCC24CCC(C(=O)O)(CC2)C4)C3)c1Cl` (single isomer, unassigned) [61 (compound 1), 4-(2-(2-((2-chloro-3′-(5-(4-hydroxycyclohexyl)-1-methyl-4,5,6,7-tetrahydro-1H-imidazo[4,5-c]pyridine-2-carboxamido)-2′-methyl-[1,1′-biphenyl]-3-yl)carbamoyl)-1-methyl-1,4,6,7-tetrahydro-5H-imidazo[4,5-c]pyridin-5-yl)ethyl)bicyclo[2.2.1]heptane-1-carboxylic acid], the IC50 in test [1] is at most 5 nM; in test [2] (Homo sapiens, U2OS) it was at most 10 nM; against PD-L1, 10 to 100 nM. The molecule further showed an EC50 in test [3] (Cricetulus griseus, CHO-K1) of 10 to 100 nM.
`Cn1c(C(=O)Nc2cccc(-c3cccc(NC(=O)c4nc5c(n4C)CCN(CCC46CCC(C(=O)O)(CC4)C6)C5)c3Cl)c2Cl)nc2c1CCNC2` [Example 1, 4-(2-(2-((2,2′-dichloro-3′-(1-methyl-4,5,6,7-tetrahydro-1H-imidazo[4,5-c]pyridine-2-carboxamido)-[1,1′-biphenyl]-3-yl)carbamoyl)-1-methyl-1,4,6,7-tetrahydro-5H-imidazo[4,5-c]pyridin-5-yl)ethyl)bicyclo[2.2.1]heptane-1-carboxylic Acid]: the IC50 is at most 5 nM in test [1]; at most 10 nM in test [2] (Homo sapiens, U2OS); at most 10 nM at PD-L1. Besides, in test [3] (Cricetulus griseus, CHO-K1), the EC50 lay within 10 to 100 nM.
On to `Cn1c(C(=O)Nc2cccc(-c3cccc(NC(=O)c4nc5c(n4C)CCN(C4CCOCC4)C5)c3Cl)c2Cl)nc2c1CCN(CCC13CCC(C(=O)O)(CC1)C3)C2` [Example 2, 4-(2-(2-((2,2′-dichloro-3′-(1-methyl-5-(tetrahydro-2H-pyran-4-yl)-4,5,6,7-tetrahydro-1H-imidazo[4,5-c]pyridine-2-carboxamido)-[1,1′-biphenyl]-3-yl)carbamoyl)-1-methyl-1,4,6,7-tetrahydro-5H-imidazo[4,5-c]pyridin-5-yl)ethyl)bicyclo[2.2.1]heptane-1-carboxylic Acid], for which the IC50 in test [1] is at most 5 nM; in test [2] (Homo sapiens, U2OS), at most 10 nM; against PD-L1, 10 to 100 nM. For the same molecule, the EC50 in test [3] (Cricetulus griseus, CHO-K1) fell in the range of 10 to 100 nM.
Consider `Cn1c(C(=O)Nc2cccc(-c3cccc(NC(=O)c4nc5c(n4C)CCN(C4CCN(S(N)(=O)=O)CC4)C5)c3Cl)c2Cl)nc2c1CCN(CCC13CCC(C(=O)O)(CC1)C3)C2` [Example 8, 4-(2-(2-((2,2′-dichloro-3′-(1-methyl-5-(1-sulfamoylpiperidin-4-yl)-4,5,6,7-tetrahydro-1H-imidazo[4,5-c]pyridine-2-carboxamido)-[1,1′-biphenyl]-3-yl)carbamoyl)-1-methyl-1,4,6,7-tetrahydro-5H-imidazo[4,5-c]pyridin-5-yl)ethyl)bicyclo[2.2.1]heptane-1-carboxylic acid], for which the IC50 in test [1] was at most 5 nM; in test [2] (Homo sapiens, U2OS) it was at most 10 nM; against PD-L1, 100 to 500 nM. Also, in test [3] (Cricetulus griseus, CHO-K1), the EC50 is 10 to 100 nM.
As to `Cn1c(C(=O)Nc2cccc(-c3cccc(NC(=O)c4nc5c(n4C)CCN(Cc4cc[nH]n4)C5)c3Cl)c2Cl)nc2c1CCN(CCC13CCC(C(=O)O)(CC1)C3)C2` [Example 9, 4-(2-(2-((3′-(5-((1H-pyrazol-3-yl)methyl)-1-methyl-4,5,6,7-tetrahydro-1H-imidazo[4,5-c]pyridine-2-carboxamido)-2,2′-dichloro-[1,1′-biphenyl]-3-yl)carbamoyl)-1-methyl-1,4,6,7-tetrahydro-5H-imidazo[4,5-c]pyridin-5-yl)ethyl)bicyclo[2.2.1]heptane-1-carboxylic acid], the IC50 in test [1] was at most 5 nM; in test [2] (Homo sapiens, U2OS) it was at most 10 nM; against PD-L1, 10 to 100 nM. The same molecule came in with an EC50 in test [3] (Cricetulus griseus, CHO-K1) of 10 to 100 nM.
As for `Cn1c(C(=O)Nc2cccc(-c3cccc(NC(=O)c4nc5c(n4C)CCN(C(CO)CO)C5)c3Cl)c2Cl)nc2c1CCN(CCC13CCC(C(=O)O)(CC1)C3)C2` [Example 10, 4-(2-(2-((2,2′-dichloro-3′-(5-(1,3-dihydroxypropan-2-yl)-1-methyl-4,5,6,7-tetrahydro-1H-imidazo[4,5-c]pyridine-2-carboxamido)-[1,1′-biphenyl]-3-yl)carbamoyl)-1-methyl-1,4,6,7-tetrahydro-5H-imidazo[4,5-c]pyridin-5-yl)ethyl)bicyclo[2.2.1]heptane-1-carboxylic acid], the IC50 in test [1] was at most 5 nM; in test [2] (Homo sapiens, U2OS), at most 10 nM; at PD-L1 it was 10 to 100 nM. In test [3] (Cricetulus griseus, CHO-K1), this molecule showed an EC50 of 10 to 100 nM.
Turning to `Cn1c(C(=O)Nc2cccc(-c3cccc(NC(=O)c4nc5c(n4C)CCN(C[C@@H](O)CO)C5)c3Cl)c2Cl)nc2c1CCN(CCC13CCC(C(=O)O)(CC1)C3)C2` [Example 11, (R)-4-(2-(2-((2,2′-dichloro-3′-(5-(2,3-dihydroxypropyl)-1-methyl-4,5,6,7-tetrahydro-1H-imidazo[4,5-c]pyridine-2-carboxamido)-[1,1′-biphenyl]-3-yl)carbamoyl)-1-methyl-1,4,6,7-tetrahydro-5H-imidazo[4,5-c]pyridin-5-yl)ethyl)bicyclo[2.2.1]heptane-1-carboxylic acid], the IC50 in test [1] fell in the range of 5 to 10 nM; in test [2] (Homo sapiens, U2OS) it was 10 to 100 nM; at PD-L1 it was 100 to 500 nM. Besides, the concentration giving a half-maximal response (EC50) in test [3] (Cricetulus griseus, CHO-K1) fell in the range of 10 to 100 nM.
Regarding `Cn1c(C(=O)Nc2cccc(-c3cccc(NC(=O)c4nc5c(n4C)CCN(C[C@H](O)CO)C5)c3Cl)c2Cl)nc2c1CCN(CCC13CCC(C(=O)O)(CC1)C3)C2` [Example 12, (S)-4-(2-(2-((2,2′-dichloro-3′-(5-(2,3-dihydroxypropyl)-1-methyl-4,5,6,7-tetrahydro-1H-imidazo[4,5-c]pyridine-2-carboxamido)-[1,1′-biphenyl]-3-yl)carbamoyl)-1-methyl-1,4,6,7-tetrahydro-5H-imidazo[4,5-c]pyridin-5-yl)ethyl)bicyclo[2.2.1]heptane-1-carboxylic acid], the IC50 in test [1] was at most 5 nM; in test [2] (Homo sapiens, U2OS), at most 10 nM; against PD-L1, 10 to 100 nM. The same molecule registered an EC50 in test [3] (Cricetulus griseus, CHO-K1) of 10 to 100 nM.
As for `C[C@@H](O)CN1CCc2c(nc(C(=O)Nc3cccc(-c4cccc(NC(=O)c5nc6c(n5C)CCN(CCC57CCC(C(=O)O)(CC5)C7)C6)c4Cl)c3Cl)n2C)C1` [Example 13, (R)-4-(2-(2-((2,2′-dichloro-3′-(5-(2-hydroxypropyl)-1-methyl-4,5,6,7-tetrahydro-1H-imidazo[4,5-c]pyridine-2-carboxamido)-[1,1′-biphenyl]-3-yl)carbamoyl)-1-methyl-1,4,6,7-tetrahydro-5H-imidazo[4,5-c]pyridin-5-yl)ethyl)bicyclo[2.2.1]heptane-1-carboxylic Acid], the IC50 in test [1] is at most 5 nM; in test [2] (Homo sapiens, U2OS), at most 10 nM; against PD-L1, 10 to 100 nM. This molecule also registered an EC50 in test [3] (Cricetulus griseus, CHO-K1) of at most 10 nM.

As a reminder, the IC50 is the concentration that gives 50% inhibition. Broadly, the EC50 is the concentration that produces a half-maximal response.
